This test has as its system cottontail rabbits. The test can be described thus: no-choice feeding experiment, repellency of cottontail rabbits from treated whole oats. In kind it is in vivo. The text has this: As used herein, the term “repellency” means the percent decrease in consumption (or occupancy) of a treated substrate relative to an untreated substrate. […] These values can be used to define a range, such as 50% to 75%, or 75% to 85%, or 25% to 50% decrease in consumption (or occupancy) of a treated substrate relative to an untreated substrate.
We conducted one no-choice feeding experiment for each unique combination of the trigeminal nerve irritant (methyl anthranilate) and the animal repellent (anthraquinone). For each feeding experiment, we used 24-30 cottontail rabbits to evaluate the efficacy of our repellent formulations. For each experiment, we offered untreated food for up to three days of the pretreatment and repellent-treated food during the 1-day test. For each experiment, our three test treatments (n=8−10 rabbits per treatment group) included food treated with (1) the methyl anthranilate alone, (2) the anthraquinone alone and (3) the combination of the methyl anthranilate and the anthraquinone.

The structures appear in SMILES notation.

For `COC(=O)c1ccccc1N` [methyl anthranilate], the “% Repellency” value is, setting by setting: (whole oats treated with 5000 ppm MA alone, 1-day no-choice test) 6%; (whole oats treated with 5000 ppm MA alone, 1-day no-choice test, listed as MA) 6%; (whole oats treated with 10,000 ppm MA alone, 1-day no-choice test) 62%.
`O=C1c2ccccc2C(=O)c2ccccc21` [anthraquinone, 9,10-anthraquinone]: the “% Repellency” value (rabbit, in vivo) is on record as 36%.

Source of the values: patent US20240023546A1, “TRIGEMINAL CUE FOR WILDLIFE REPELLENTS” (The United States of America, as Represented by the …, priority 2022, published 2024).
